According to patent US6787566B2, “Breakers of advanced glycation endproducts” (City of Hope, priority 1999, dated 2004):

Columns and labels:
[1] = system: crosslinks formed in skin and tail collagen of diabetic rats; details: cited from earlier work
[2] = biological target: T1, cross-linked collagen-AGE-BSA (Rattus norvegicus, UniProt P02454+P02466); experiment: AGE-BSA-collagen ELISA: cleavage of glycated BSA cross-linked to collagen; type: biochemical; details: for AGE-breaking activity (cleavage of cross-linked collagen-AGE-BSA), in words: 0.1-10 mM final concentration, FIGS. 1A and 1C; for Concentration dependence of AGE-BSA-collagen crosslink breaking, in words: FIGS. 1A-C
T1 construct: purchased Biocoat (Collaborative Research, Bedford, Mass.) for the collagen-coated plates; Sigma Chemical co. for bovine serum albumin
Experimental: In vitro evaluation of the ability of the AGE-breaker compounds to cleave and break cross-linking of glycated BSA (AGE-BSA) (prepared as described (Rahbar et al., 1999)) to the rat-tail-tendon-collagen was by a special ELISA (Vasan et al., 1996). The rat-tail-tendon-collagen coated plates were first blocked first with 300 μL of Superblock blocking buffer (Pierce Chemicals, Rockford, Ill.) for one hour. The blocking solution was removed from the wells by washing the plates twice with PBS-0.05% Tween 20 (PBS-T) using a Dynatech ELISA-plate washer. Cross-linking of various concentrations of AGE-BSA (0, 0.01, 0.05, 0.1, 0.25, 0.50, and 1.0 μg per well) to rat-tail-collagen coated plates was performed without the testing compound, and the plates were incubated for 5 hours at 37° C. After washing the wells three times with PBS-T to remove the unattached AGE-BSA, test concentrations of the compound (50 μL/well) dissolved in PBS were added to wells in triplicate and incubation continued at 37° C. overnight. After washing with PBS-T, the amount of BSA remaining attached to the tail collagen plate was then quantified by addition of rabbit anti-BSA polyclonal antibodies (50 μL/well) for 1 hour at 37° C. The wells were then washed three times with PBS-T and developed with the chromogenic substrate ABTS (100 μL/well). Absorbance was measured at 410 nm in microplate reader (BioRad, Hercules, Calif.).
The percentage breaking activity is calculated by the following formula: 100×[(A410, PBS control)−(A410, AGE-breaker compound)]/[A410, PBS control].

[3] = biological target: T2, native and glycated β-amyloid (1-40) peptide fibrils (Homo sapiens, UniProt P05067); experiment: Thioflavine T fluorescence assay of β-amyloid fibril disaggregation; type: biochemical; details: ThT assay
T2 construct: β-amyloid (1-40) peptide was from Bachem (Torrance, Calif.); purchased Bachem (Torrance, Calif.)
Experimental: Both dyes have been adapted to in vitro measurements of amyloid fibril formation and quantification. ThT binding to β-amyloids gives rise to a large fluorescence excitation spectral shift that allows selective excitation of the amyloid fibril bound ThT (Tjernberg et al., 1999). In the present study, we have investigated the disaggregation of both native (unmodified) and glycated β-amyloid (1-40) peptide by the AGE-breaker compounds introduced here. Stock solutions of peptide were dissolved in deionized water at a concentration of 1 mg/mL. For AGE crosslinking experiments, they were incubated in 4 mL polypropylene tubes at a concentration of 250 μg/mL (60 μM) and 50 mM glucose in 50 mM sodium phosphate buffer, pH 7.9, at 50° C. in the dark for 5 days. Sodium azide (0.01% w/v) was added to prevent microbiological growth. In long-term experiments, water was added every 12 hours to compensate for solvent evaporation. AGE-β-amyloid was then dialyzed against double-distilled water using Spectra/Por CE dialysis membrane (molecular mass cut off: 1000 Da), and then freeze dried. Two sets of experiments were prepared for each compound. Solutions for the first experiment contained 100 μM of β-amyloid in 50 mM Tris-buffered saline (TBS) pH 7.4, and […] (the drugs were dissolved in DMSO and the solutions were prepared for dilution from this DMSO stock). The second set contained 100 μM of β-amyloid in TBS and 100 μM of one compound. The reactions were incubated at 37° C. for 24 hours without stirring (stagnant assay). Control experiments were prepared accordingly except that no AGE-breaker compounds were added to the tubes. The same protocol was used for both native and glycated β-amyloid peptides. The incubated samples are vortexed and 40 μL aliquots are withdrawn and mixed with 960 μL of 10 μM ThT in 10 mM sodium phosphate-buffer. Fluorescence measurements were taken with excitation of 437 nm and emission at 485 nm. Slit widths are set to 5 nm.

β-amyloid fibrils = biological target: T3, β-amyloid fibrils (Homo sapiens, UniProt P05067); details: 20 mM; cited from earlier work
T3 construct: β-AP (amino acids 1-40, from Bachem, Torrance, Calif.)

[4] = system: IgG-AGE cross-linked to the rat RBC surface; experiment: Cleavage of IgG-AGE cross-linked to RBC surface, anti-IgG ELISA; type: cell-based; details: RBCs of diabetic rats vs diabetic and non-diabetic controls; FIG. 6
Experimental: IgG cross-linked to the RBC surface was determined with an anti-IgG by a modification of the method described by Vasan et al. (1996). Briefly, heparinized blood was drawn from the tail vein in capillary tubes, inverted several times, then centrifuged at 200×g for five minutes at room temperature. RBCs were washed three times with PBS in 0.5 mL microfuge tubes and packed with a final centrifugation at 500×g. Red cells were diluted at 1:10 to 1:100 in Dulbecco's Modified Eagle's Medium that is normal for glucose. Experimental compounds were added at desired concentrations and incubated at 37° C. in a CO2 incubator for 24 hours in sterile conditions. Control incubations contained RBCs and PBS alone. After incubation, RBCs were washed three times in PBS and packed cells diluted 1:200 to 1:500. The RBC suspensions were gently vortexed and 50 μL aliquots added to 450 μL of a polyclonal rabbit anti-rat IgG conjugated to alkaline phosphatase (diluted 1:2500 in PBS). […] The RBCs were pelleted and the supernatant was read at […] in either a conventional spectrometer or an ELISA reader. Blank readings were obtained by incubating tubes without cells.

T1 sequence (P02454 152-1207 limits assumed): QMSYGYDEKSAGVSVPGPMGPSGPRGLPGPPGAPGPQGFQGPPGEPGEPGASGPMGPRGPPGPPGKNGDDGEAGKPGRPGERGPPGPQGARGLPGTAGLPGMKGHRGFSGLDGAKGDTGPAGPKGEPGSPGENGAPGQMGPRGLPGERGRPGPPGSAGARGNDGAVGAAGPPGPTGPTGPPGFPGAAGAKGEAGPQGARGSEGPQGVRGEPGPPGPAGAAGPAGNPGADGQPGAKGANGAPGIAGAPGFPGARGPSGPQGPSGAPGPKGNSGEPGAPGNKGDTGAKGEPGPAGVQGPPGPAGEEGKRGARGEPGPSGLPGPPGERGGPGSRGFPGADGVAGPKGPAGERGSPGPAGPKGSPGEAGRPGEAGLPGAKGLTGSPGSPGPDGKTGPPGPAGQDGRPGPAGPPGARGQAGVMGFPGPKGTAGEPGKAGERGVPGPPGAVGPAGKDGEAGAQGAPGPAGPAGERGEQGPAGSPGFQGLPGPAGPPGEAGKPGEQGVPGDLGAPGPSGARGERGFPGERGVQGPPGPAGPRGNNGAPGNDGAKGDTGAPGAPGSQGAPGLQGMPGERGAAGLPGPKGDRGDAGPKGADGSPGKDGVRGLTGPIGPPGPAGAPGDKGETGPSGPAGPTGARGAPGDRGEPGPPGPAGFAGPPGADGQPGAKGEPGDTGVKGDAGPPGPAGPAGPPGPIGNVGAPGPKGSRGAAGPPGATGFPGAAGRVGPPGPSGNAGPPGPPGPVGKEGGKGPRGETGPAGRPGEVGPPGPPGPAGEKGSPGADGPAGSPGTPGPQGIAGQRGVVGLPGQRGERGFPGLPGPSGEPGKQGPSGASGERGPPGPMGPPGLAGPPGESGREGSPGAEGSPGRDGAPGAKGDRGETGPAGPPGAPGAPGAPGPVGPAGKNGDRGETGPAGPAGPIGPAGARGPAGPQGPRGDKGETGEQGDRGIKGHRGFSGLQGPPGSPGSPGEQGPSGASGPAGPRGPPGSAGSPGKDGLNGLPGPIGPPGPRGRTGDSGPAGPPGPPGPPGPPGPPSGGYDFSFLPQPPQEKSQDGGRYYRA
T1 sequence (P02466 86-1125 limits assumed): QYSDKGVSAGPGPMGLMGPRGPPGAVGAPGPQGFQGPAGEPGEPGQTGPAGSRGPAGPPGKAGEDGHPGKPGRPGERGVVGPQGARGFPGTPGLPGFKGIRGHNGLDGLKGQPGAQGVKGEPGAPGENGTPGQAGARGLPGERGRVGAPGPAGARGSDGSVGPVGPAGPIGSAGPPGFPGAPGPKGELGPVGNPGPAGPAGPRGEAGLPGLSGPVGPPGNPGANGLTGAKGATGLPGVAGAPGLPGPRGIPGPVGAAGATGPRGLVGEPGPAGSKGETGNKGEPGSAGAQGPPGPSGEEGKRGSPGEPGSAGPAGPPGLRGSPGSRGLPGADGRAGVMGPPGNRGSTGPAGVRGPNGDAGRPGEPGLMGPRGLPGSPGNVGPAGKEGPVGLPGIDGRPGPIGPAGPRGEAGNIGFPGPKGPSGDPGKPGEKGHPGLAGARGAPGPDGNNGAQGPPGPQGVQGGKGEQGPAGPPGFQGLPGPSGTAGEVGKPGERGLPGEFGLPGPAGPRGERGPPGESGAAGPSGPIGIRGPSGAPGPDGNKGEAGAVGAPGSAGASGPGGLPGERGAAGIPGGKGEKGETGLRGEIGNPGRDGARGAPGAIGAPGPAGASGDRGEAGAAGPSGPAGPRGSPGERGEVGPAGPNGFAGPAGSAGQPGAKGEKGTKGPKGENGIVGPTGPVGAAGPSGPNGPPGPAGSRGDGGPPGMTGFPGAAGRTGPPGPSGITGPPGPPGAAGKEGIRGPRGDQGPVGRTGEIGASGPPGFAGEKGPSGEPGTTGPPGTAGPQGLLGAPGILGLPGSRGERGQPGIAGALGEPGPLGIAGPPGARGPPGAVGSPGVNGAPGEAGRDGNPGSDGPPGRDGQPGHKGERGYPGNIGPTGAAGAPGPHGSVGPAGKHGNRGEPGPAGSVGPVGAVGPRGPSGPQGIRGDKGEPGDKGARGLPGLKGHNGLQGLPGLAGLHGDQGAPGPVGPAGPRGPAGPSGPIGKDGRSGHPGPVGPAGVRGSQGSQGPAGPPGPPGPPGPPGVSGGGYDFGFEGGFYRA
T2 sequence (P05067 672-711): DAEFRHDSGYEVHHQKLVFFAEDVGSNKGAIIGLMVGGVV
T3 sequence (P05067 672-711): as above

Compound	Cleaving crosslinks formed in skin and tail collagen, in words [1]	AGE-breaking activity (cleavage of cross-linked collagen-AGE-BSA), in words [2]	Concentration dependence of AGE-BSA-collagen crosslink breaking, in words [2]	Disaggregation of fibrillar forms of native and glycated β-amyloid, in words [3]	Disaggregation of β-amyloid fibrils, in words (β-amyloid fibrils)	Overall AGE-breaking property, in words ([2]; overall judgement of the patent's tests)	IgG-AGE bound to RBC surface, in words [4]
Cc1sc[n+](CC(=O)c2ccccc2)c1C.[Cl-] [ALT711]	not effective						
methylene bis [LR90, methylene bis [4,4′-(2-chlorophenylureidophenoxyisobutyric acid)]]		very effective AGE-breakers	more effective breakers at higher concentrations	clearly confirmed the efficacy			
O=C(C[n+]1ccsc1)c1ccccc1.[Br-] [PTB, N-phenacylthiazolium bromide]					disaggregates β-amyloid fibrils		
1,4-benzene-bis[4-methyleneaminophenoxyisobutyric acid] [LR102]		very effective AGE-breakers	more potent at lower concentrations	clearly confirmed the efficacy		most effective AGE-breakers	almost the same IgG-AGE content as that of non-diabetic control
